# Data: US10206937B2, “Boronic acid derivatives and therapeutic uses thereof” (Qpex Biopharma, Inc., priority 2014, dated 2019)
# System: strains of Enterobacteriaceae producing various carbapenemases (class A, D and B; 104 strains)
# Assay: Antibiotics potentiation by Compound 27 (MIC; meropenem, doripenem, ertapenem, cefepime)
# Type: cell-based
# Conditions: + 27 = with Compound 27 at fixed 4 μg/ml
smiles,measurement,setting,value
C[C@@H](O)[C@H]1C(=O)N2C(C(=O)O)=C(S[C@@H]3CN[C@H](C(=O)N(C)C)C3)[C@H](C)[C@H]12 [M],MIC,strain CF1012 Citrobacter freundii (KPC-2),Y (MIC of 1 μg/mL to 10 μg/mL)
same,MIC,strain CF1021 Citrobacter freundii (CMY-type; VIM-1),Y (MIC of 1 μg/mL to 10 μg/mL)
same,MIC,"strain CF1022 Citrobacter freundii (SHV-12(2be), TEM-OSBL(2b); IMP-8)",Y (MIC of 1 μg/mL to 10 μg/mL)
same,MIC,"strain CF1023 Citrobacter freundii (SHV-12(2be), TEM-OSBL(2b); CTX-M-3; CMY-34; NDM-1)",Z (MIC of greater than 10 μg/mL)
same,MIC,strain CL1080 Enterobacter cloacae (IMP-1),Y (MIC of 1 μg/mL to 10 μg/mL)
same,MIC,"strain EA1019 Enterobacter aerogenes (SHV-5, VIM-1)",Z (MIC of greater than 10 μg/mL)
same,MIC,strain EC1007 Escherichia coli (KPC-3),X (MIC of less than 1 μg/mL)
same,MIC,"strain EC1061 Escherichia coli (NDM-1, CMY-6)",Z (MIC of greater than 10 μg/mL)
same,MIC,"strain EC1062 Escherichia coli (OXA-48, CTX-M-15)",X (MIC of less than 1 μg/mL)
same,MIC,"strain EC1064 Escherichia coli (NDM-1, CMY-6, CTX-M-15)",Z (MIC of greater than 10 μg/mL)
same,MIC,strain EC1065 Escherichia coli (IMP-1),Y (MIC of 1 μg/mL to 10 μg/mL)
same,MIC,strain EC1068 Escherichia coli (VIM-1),Z (MIC of greater than 10 μg/mL)
same,MIC,strain EC1069 Escherichia coli (CTX-M-27; NDM-1),Z (MIC of greater than 10 μg/mL)
same,MIC,strain EC1070 Escherichia coli (TEM-OSBL(2b); CMY-42; NDM-5),Z (MIC of greater than 10 μg/mL)
same,MIC,strain EC1072 Escherichia coli (CTX-M-3; NDM-1),Z (MIC of greater than 10 μg/mL)
same,MIC,strain ECL1004 Enterobacter cloacae (NMC-A),Y (MIC of 1 μg/mL to 10 μg/mL)
same,MIC,"strain ECL1026 Enterobacter cloacae (KPC-2, TEM-1)",Y (MIC of 1 μg/mL to 10 μg/mL)
same,MIC,"strain ECL1036 Enterobacter cloacae (KPC-3, TEM-1)",Y (MIC of 1 μg/mL to 10 μg/mL)
same,MIC,strain ECL1045 Enterobacter cloacae (VIM-1),Y (MIC of 1 μg/mL to 10 μg/mL)
same,MIC,"strain ECL1055 Enterobacter cloacae (KPC-3, TEM)",Y (MIC of 1 μg/mL to 10 μg/mL)
same,MIC,"strain ECL1057 Enterobacter cloacae (NDM-1, TEM-1, CTX-M-15)",Z (MIC of greater than 10 μg/mL)
same,MIC,"strain ECL1058 Enterobacter cloacae (KPC-3, SHV-11, TEM-1)",Z (MIC of greater than 10 μg/mL)
same,MIC,"strain ECL1059 Enterobacter cloacae (KPC-3, SHV-12, TEM-1)",Y (MIC of 1 μg/mL to 10 μg/mL)
same,MIC,"strain ECL1061 Enterobacter cloacae (KPC-3, Hyper AmpC expression)",Z (MIC of greater than 10 μg/mL)
same,MIC,strain ECL1082 Enterobacter cloacae (VIM-1),Z (MIC of greater than 10 μg/mL)
same,MIC,strain ECL1084 Enterobacter cloacae (CTX-M-15; ACT-16; NDM-1),Z (MIC of greater than 10 μg/mL)
same,MIC,"strain ECL1085 Enterobacter cloacae (SHV-31(2be), TEM-1(2b); CTX-M-15; NDM-1)",Z (MIC of greater than 10 μg/mL)
same,MIC,"strain ECL1086 Enterobacter cloacae (VIM-31, OXA-48(c))",Y (MIC of 1 μg/mL to 10 μg/mL)
same,MIC,strain ECL1087 Enterobacter cloacae (VIM-1),Z (MIC of greater than 10 μg/mL)
same,MIC,strain ECL1088 Enterobacter cloacae (TEM-1(2b); CTX-M-14; ACT-type; VIM-1),Z (MIC of greater than 10 μg/mL)
same,MIC,strain ECL1089 Enterobacter cloacae (ACT-type; IMP-1),Z (MIC of greater than 10 μg/mL)
same,MIC,strain ECL1090 Enterobacter cloacae (TEM-1(2b); CTX-M-22; ACT-type; IMP-8),Y (MIC of 1 μg/mL to 10 μg/mL)
same,MIC,strain ECL1091 Enterobacter cloacae (VIM-1),Z (MIC of greater than 10 μg/mL)
same,MIC,strain ECL1092 Enterobacter cloacae (TEM-OSBL(2b); ACT-32; VIM-1),Y (MIC of 1 μg/mL to 10 μg/mL)
same,MIC,strain ECL1093 Enterobacter cloacae (TEM-OSBL(2b); ACT-32; VIM-1),Y (MIC of 1 μg/mL to 10 μg/mL)
same,MIC,strain ECL1094 Enterobacter cloacae (VIM-1),Z (MIC of greater than 10 μg/mL)
same,MIC,"strain ECL1096 Enterobacter cloacae (CMY-4, VIM-4, OXA-48(c))",Y (MIC of 1 μg/mL to 10 μg/mL)
same,MIC,"strain ECL1097 Enterobacter cloacae (SHV-31(2be), TEM-OSBL(2b); CTX-M-15; ACT-31; NDM-1)",Z (MIC of greater than 10 μg/mL)
same,MIC,strain ECL1098 Enterobacter cloacae (TEM-OSBL(2b); DHA-1; ACT-16; NDM-1),Z (MIC of greater than 10 μg/mL)
same,MIC,strain KP1001 Klebsiella pneumoniae (KPC TEM SHV),Z (MIC of greater than 10 μg/mL)
same,MIC,strain KP1002 Klebsiella pneumoniae (KPC TEM SHV),Y (MIC of 1 μg/mL to 10 μg/mL)
same,MIC,strain KP1003 Klebsiella pneumoniae (KPC TEM SHV),Y (MIC of 1 μg/mL to 10 μg/mL)
same,MIC,"strain KP1004 Klebsiella pneumoniae (KPC-2, TEM-1, SHV-11)",Z (MIC of greater than 10 μg/mL)
same,MIC,strain KP1008 Klebsiella pneumoniae (KPC-2),Y (MIC of 1 μg/mL to 10 μg/mL)
same,MIC,"strain KP1014 Klebsiella pneumoniae (VIM-1, TEM, SHV)",Y (MIC of 1 μg/mL to 10 μg/mL)
same,MIC,"strain KP1054 Klebsiella pneumoniae (VIM-1, SHV-11)",Z (MIC of greater than 10 μg/mL)
same,MIC,"strain KP1059 Klebsiella pneumoniae (VIM-1, SHV-11)",Z (MIC of greater than 10 μg/mL)
same,MIC,"strain KP1061 Klebsiella pneumoniae (KPC-3, SHV-11, TEM-1)",Z (MIC of greater than 10 μg/mL)
same,MIC,"strain KP1064 Klebsiella pneumoniae (KPC-2, SHV-11, TEM-1)",Z (MIC of greater than 10 μg/mL)
same,MIC,"strain KP1065 Klebsiella pneumoniae (VIM-1, SHV-11)",Y (MIC of 1 μg/mL to 10 μg/mL)
same,MIC,"strain KP1070 Klebsiella pneumoniae (KPC-2, SHV-11, TEM-1)",Z (MIC of greater than 10 μg/mL)
same,MIC,"strain KP1074 Klebsiella pneumoniae (KPC-3, SHV-11, TEM)",Z (MIC of greater than 10 μg/mL)
